Where “and” joins values, the source holds several entries; their conditions need not be identical. Equal entries are not always repeated. Where two headings read alike, the source gives them in different places.
How the values were obtained:
[1] = Metabolic stability in human liver microsomes; type: in vitro ADME; settings: n = 2
Experimental: A solution of the test compounds in phosphate buffer solution (1 µM) was incubated in pooled human and mouse liver microsomes (0.5 mg/ml) for 0, 5, 20, 30, 45 and 60 min at 37 °C in the presence and absence of an NADPH regeneration system (NRS). The tests were carried out by TCGLS, Kolkata, India. The reaction was terminated with the addition of ice-cold acetonitrile, containing a […] standard, at designated time points. The sample was centrifuged (3300 × g) for 20 min at 20 °C and the supernatant was diluted by half in water and then analyzed by LC-MS/MS. The % parent compound remaining, half-life (T1/2) and clearance (CLint,app) were calculated using standard methodology. The experiment was carried out in duplicate. Verapamil, diltiazem, phenacetin and imipramine were used as reference standards.

P. falciparum (3D7) = experiment: Activity against P. falciparum 3D7 cultures, 72 h (PfLDH growth inhibition / flow cytometry); type: cell-based, Plasmodium falciparum
Experimental: Antimalarial activity against P. falciparum 3D7 was tested by TCGLS, Kolkata, India, using the lactate dehydrogenase (PfLDH) growth inhibition assay. […] Plates were shaken to ensure mixing and were placed in the dark at 21 °C for 20 min. […] P. falciparum strain (3D7) was obtained from BEI Resources.
Viability was assessed in the second cycle by flow cytometry, following labeling with 2 μM Syto-61 (Thermo Fisher Scientific)[48],[49]. Viability represents the parasitemia normalized to untreated and “kill” controls that were treated with 2 μM dihydroartemisinin (DHA; Sigma-Aldrich) for 48–72 h. For drug pulse assays, tightly synchronized Cam3.II-rev[50] parasites (1–1.5% parasitemia, 0.2% final hematocrit) were added to the plates and incubated for 6 h. Drugs were removed and the parasitemia assessed in the trophozoite stage of the next cycle.

[2] = test system: control YFP line (TetR/DOZI module); experiment: OSM-S-106 susceptibility assay, control YFP line; type: cell-based, Plasmodium falciparum; settings: YFP-aptamer control line
Experimental: Synchronous ring-stage PfAsnRS, PfAlaRS, PfGlyRS, PfNT4, PfGDH3, and PfCA cKD parasites, as well as a control line expressing a fluorescent protein under the control of the TetR/DOZI module, were maintained in 0.5 µM aTc to achieve wild-type protein levels, and 0.001 or 0.0015 µM aTc for knockdown of PfAsnRS, PfAlaRS and PfGlyRS, and no aTc for knockdown of PfNT4, PfGDH3 and PfCA. DMSO- and dihydroartemisinin-treatment (0.5 µM) served as reference controls.

[3] = test system: P. falciparum Dd2-B2 clone; experiment: microbe, parasite or virus in culture; type: cell-based, Plasmodium falciparum; settings: Plasmodium falciparum, DD2
Description: Wells were monitored daily by smear during the first 7 days to ensure parasite clearance, during which media was changed daily. […] Whole-genome sequencing analysis employed MiSeq data from libraries of 2 × 300 bp paired end reads.

[4] = test system: protein translation in P. falciparum trophozoites (Cam3.II-rev); experiment: Protein translation assay (OPP incorporation); type: cell-based, Plasmodium falciparum; settings: for Translation: 6 h exposure, individual experiments, 0 nM = 100
Experimental: O-propargyl-puromycin (OPP) (Abcam) was added to the culture and incubated for a further 2 h. Parasites were washed three times in 1 × PBS (Gibco™) and fixed with 4% formaldehyde (Polysciences) and 0.02% glutaraldehyde (Sigma) in 1 × PBS for 20 min at room temperature (RT). Cells were washed two times with buffer A (3% human serum in 1 × PBS). Pellets were permeabilized in buffer A containing 0.05% Triton® X-100 and washed two times with buffer A. Fixed-permeabilized cells were subjected to copper-catalyzed azide–alkyne cycloaddition (CuAAC) at 37 °C for 1 h in the presence of 0.1 mM CuSO4, 0.5 mM THPTA, 5 mM sodium ascorbate, and 0.1 μM Alexa Fluor 488 azide in buffer A. Pellets were washed four times in buffer A and resuspended in buffer A containing 25 μg/ml propidium iodide (Invitrogen™). Cells were interrogated by flow cytometry (FACS Canto II; BD Biosciences, San Jose, CA) using FITC and Cy™5.5 channels.

[5] = test system: Dd2 parasites selected with OSM-S-106; experiment: Sensitivity of ramp-up OSM-S-106-selected Dd2 clones; type: cell-based; settings: Plasmodium falciparum

## Nc1ncnc2cc(-c3cccc(S(N)(=O)=O)c3)sc12 [OSM-S-106]
[1]
  Degradation half-life: 395/619
P. falciparum (3D7); Plasmodium falciparum, 3D7, 72 h, read-out: Pf3D7 IC50(72 h), 72 h, mean ± SD or duplicate values
  IC50: 0.058 ± 0.017 µM
P. falciparum (3D7); Plasmodium falciparum, 3D7, read-out: amount needed to kill parasite cultures
  IC50: ~0.06 µM
P. falciparum (3D7); read-out: Pf3D7 IC50 (72h), individual biological repeats (source data of Table 1)
  IC50: 0.0611 µM and 0.0527 µM and 0.0871 µM and 0.0796 µM and 0.0505 µM and 0.0488 µM and 0.0379 µM and 0.0437 µM
[2]; 3.125 nM OSM-S-106, 500 nM aTc
  Growth: 98.4708 and 116.919 and 104.321
[2]; 3.125 nM OSM-S-106, no aTc
  Growth: 98.4734 and 92.161 and 100.93
[2]; 6.25 nM OSM-S-106, 500 nM aTc
  Growth: 96.7408 and 93.8415 and 101.366
[2]; 6.25 nM OSM-S-106, no aTc
  Growth: 92.1288 and 90.7869 and 100.211
[2]; 12.5 nM OSM-S-106, 500 nM aTc
  Growth: 103.105 and 71.6867 and 103.065
[2]; 12.5 nM OSM-S-106, no aTc
  Growth: 102.145 and 82.3472 and 97.2955
[2]; 25 nM OSM-S-106, 500 nM aTc
  Growth: 96.4937 and 50.4813 and 93.5
[2]; 25 nM OSM-S-106, no aTc
  Growth: 103.53 and 55.9318 and 95.9432
[3]
  IC50: 0.0889 µM
  IC90: 0.169 µM
[4]; 78.1 nM
  Translation: 88.2194 and 68.5604 and 78.7165
[4]; 156.3 nM
  Translation: 70.9569 and 76.7178 and 73.7965
[4]; 312.5 nM
  Translation: 55.5714 and 55.4781 and 55.6229
[4]; 625 nM
  Translation: 47.9476 and 51.4282 and 41.085
[4]; 1250 nM
  Translation: 31.8914 and 46.8967 and 33.6793
[4]; 2500 nM
  Translation: 20.1284 and 25.4073 and 16.4444
[4]; 5000 nM
  Translation: 10.3606 and 16.5158 and 20.3119
[4]; 10000 nM
  Translation: 7.683 and 13.3898 and 13.8481
[4]; 20000 nM
  Translation: 7.414 and 4.917 and 2.903
[4]; 40000 nM
  Translation: 7.804 and 8.474 and 8.853
[4]; Plasmodium falciparum, read-out: IC50 (Translation)
  IC50: 0.51 µM
[5]; DD2, parasite Dd2-B2-2 (parent)
  IC50: 0.079 ± 0.012 µM
[5]; DD2, parasite Dd2-B2-3 (parent)
  IC50: 0.08 µM
[5]; DD2, parasite Dd2-OSM-2A6
  IC50: 0.7 µM
[5]; DD2, parasite Dd2-OSM-2A9
  IC50: 0.32 µM
[5]; DD2, parasite Dd2-OSM-2B2
  IC50: 0.7 µM
[5]; DD2, parasite Dd2-OSM-2D6
  IC50: 0.78 µM
[5]; DD2, parasite Dd2-OSM-3E5
  IC50: 0.16 µM
[5]; DD2, parasite Dd2-OSM-3H7
  IC50: 0.22 µM

Source: paper PMC10831071, “Reaction hijacking inhibition of Plasmodium falciparum asparagine tRNA synthetase” (Nature Communications, 2024)
